Molecular target: C-C chemokine receptor type 4 (Mus musculus) (UniProt P51680)
Assay: Inhibition of chemotaxis of murine CCR4 transfected L1.2 cells

Sequence of C-C chemokine receptor type 4 (Mus musculus) (P51680 whole entry, looked up): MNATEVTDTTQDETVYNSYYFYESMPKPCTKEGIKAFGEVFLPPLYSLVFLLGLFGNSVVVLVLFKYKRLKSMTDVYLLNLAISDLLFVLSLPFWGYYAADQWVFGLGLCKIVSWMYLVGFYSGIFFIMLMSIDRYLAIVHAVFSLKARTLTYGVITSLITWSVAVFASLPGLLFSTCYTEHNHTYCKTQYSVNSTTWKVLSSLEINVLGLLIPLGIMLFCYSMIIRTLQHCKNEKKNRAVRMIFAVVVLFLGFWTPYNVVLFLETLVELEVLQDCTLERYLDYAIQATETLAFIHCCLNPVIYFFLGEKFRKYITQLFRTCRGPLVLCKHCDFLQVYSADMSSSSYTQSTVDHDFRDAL

IC50: 380 nM
Compound: O=C([C@H]1CCCCN1)N1CCN(c2nccc(NCc3ccc(Cl)cc3Cl)n2)CC1 [(R)-(4-(4-(2,4-dichlorobenzylamino)pyrimidin-2-yl)piperazin-1-yl)(piperidin-2-yl)methanone]
